Blank lines part the entries; values can stand above or below the molecule they belong to. Calls of active or inactive are those of the source.
Columns and labels:
[1] = system: HEK293; test: inhibition of NOD1-driven NF-kB reporter – cell-based, luminescence, uHTS, primary screen (AID 1578); format: functional; details: Homo sapiens
[2] = system: HEK293; test: cells; format: functional, cell-based; details: Homo sapiens
[3] = system: HEK293; test: cells; format: functional, cell-based; details: Homo sapiens; remark: listed apart in the source
[4] = system: HEK293; test: NOD2 signaling inhibitors in MDP-stimulated cells, cell-based, uHTS, luminescence (AID 2001); format: functional; details: Homo sapiens
[5] = target: Tumor necrosis factor (Homo sapiens, UniProt P01375); test: analog potency on TNFa NF-kB signaling – cell-based, revised, SAR follow-up (AID 2337); format: functional
[6] = target: Nucleotide-binding oligomerization domain-containing protein 1 (Homo sapiens, UniProt Q9Y239); test: blockers of NOD1 pathway activity – revised, SAR follow-up (AID 2333); format: functional
[7] = target: T1, Microphthalmia-associated transcription factor (Homo sapiens, UniProt O75030); test: reducers of TRPM1 reporter luminescence, concentration series – cell-based, SK-MEL-5, cherry-picked, set 3, MITF inhibitor project, dose response (AID 493073); format: functional;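 note: SK-MEL-5 melanoma cells with luciferase driven by the MITF target TRPM1 promoter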
T1 sequence (O75030 whole entry): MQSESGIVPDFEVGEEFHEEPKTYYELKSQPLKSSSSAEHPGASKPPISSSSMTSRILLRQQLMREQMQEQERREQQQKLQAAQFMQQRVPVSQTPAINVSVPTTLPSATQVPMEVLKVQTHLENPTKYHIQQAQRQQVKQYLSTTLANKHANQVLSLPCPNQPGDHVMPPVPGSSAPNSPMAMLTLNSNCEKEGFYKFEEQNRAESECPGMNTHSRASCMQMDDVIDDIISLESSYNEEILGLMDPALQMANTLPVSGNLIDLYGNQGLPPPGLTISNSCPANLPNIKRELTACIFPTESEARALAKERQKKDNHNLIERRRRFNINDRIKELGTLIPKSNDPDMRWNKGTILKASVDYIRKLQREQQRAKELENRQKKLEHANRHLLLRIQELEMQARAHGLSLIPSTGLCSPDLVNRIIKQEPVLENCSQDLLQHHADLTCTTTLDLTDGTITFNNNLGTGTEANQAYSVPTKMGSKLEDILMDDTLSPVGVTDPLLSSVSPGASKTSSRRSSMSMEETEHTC

[8] = system: HEK293; test: cells; details: Homo sapiens
[9] = target: T2, Tyrosine-protein phosphatase non-receptor type 7 (Homo sapiens, UniProt P35236); test: HePTP tyrosine phosphatase activity blockers – biochemical, absorbance, leukemia target, primary screen (AID 521); format: functional
T2 sequence (P35236 whole entry): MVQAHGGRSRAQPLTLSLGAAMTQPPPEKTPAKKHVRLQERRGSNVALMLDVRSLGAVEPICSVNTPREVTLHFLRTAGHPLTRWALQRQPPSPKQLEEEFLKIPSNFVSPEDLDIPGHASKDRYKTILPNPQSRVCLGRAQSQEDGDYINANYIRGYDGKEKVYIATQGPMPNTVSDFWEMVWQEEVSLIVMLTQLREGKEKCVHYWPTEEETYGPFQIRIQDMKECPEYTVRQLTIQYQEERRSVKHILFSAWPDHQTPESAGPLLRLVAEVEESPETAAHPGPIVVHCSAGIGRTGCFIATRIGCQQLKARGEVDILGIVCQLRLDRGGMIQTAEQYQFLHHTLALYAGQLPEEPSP

[10] = target: Bcl-2-like protein 10 (Homo sapiens, UniProt Q9HD36); test: Bcl-B/TR3 peptide binding disruption – biochemical, fluorescence polarization, FITC-TR3 peptide, selectivity assay for Bfl-1 inhibitor project, primary screen (AID 748);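 note: fluorescence polarization from a fluorescein-labelled TR3 peptide binding purified Bcl-B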
[11] = target: T3, Dual specificity protein phosphatase 6 (Rattus norvegicus, UniProt Q64346); test: inhibition of rat DUSP6 enzyme activity – biochemical, in vitro, primary screen (AID 425)
T3 sequence (Q64346 whole entry): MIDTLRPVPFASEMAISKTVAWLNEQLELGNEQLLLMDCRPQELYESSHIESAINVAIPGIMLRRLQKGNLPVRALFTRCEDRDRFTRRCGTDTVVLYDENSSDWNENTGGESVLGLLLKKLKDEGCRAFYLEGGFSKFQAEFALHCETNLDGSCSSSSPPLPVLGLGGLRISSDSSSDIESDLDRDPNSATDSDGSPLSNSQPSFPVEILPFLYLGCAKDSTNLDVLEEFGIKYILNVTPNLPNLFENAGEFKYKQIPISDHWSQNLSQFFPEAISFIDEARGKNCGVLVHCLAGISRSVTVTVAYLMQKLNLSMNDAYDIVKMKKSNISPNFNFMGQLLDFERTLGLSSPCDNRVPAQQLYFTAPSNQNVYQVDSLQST

[12] = target: Eukaryotic translation initiation factor 4E (Mus musculus, UniProt P63073); test: blockers of eIF4G binding by eIF4E – biochemical, TR-FRET, dose response (AID 855); format: functional;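 note: potency for disrupting eIF4E binding to eIF4GI seen as loss of FRET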
[13] = target: Sphingosine 1-phosphate receptor 1 (Homo sapiens, UniProt P21453); test: Fluorescence-based counterscreen assay for S1P4 agonists: Cell-based dose response high throughput screening assay to identify agonists of the Sphingosine 1-Phosphate Receptor 1 (S1P1). [Related pubchem assays (depositor defined):AID1509, AID1523, AID1801, AID463107, AID463118, AID463119, AID463122, AID463123, AID463129, AID463225, AID504400, AID504460]; format: functional
[14] = target: T4, Sphingosine 1-phosphate receptor 4 (Homo sapiens, UniProt O95977); test: Fluorescence dose response cell-based high throughput screening assay for agonists of the Sphingosine 1-Phosphate Receptor 4 (S1P4). [Related pubchem assays: 1509 (Primary screen.), 1523 (Confirmation screen in triplicates.)]; format: functional
T4 sequence (O95977 whole entry): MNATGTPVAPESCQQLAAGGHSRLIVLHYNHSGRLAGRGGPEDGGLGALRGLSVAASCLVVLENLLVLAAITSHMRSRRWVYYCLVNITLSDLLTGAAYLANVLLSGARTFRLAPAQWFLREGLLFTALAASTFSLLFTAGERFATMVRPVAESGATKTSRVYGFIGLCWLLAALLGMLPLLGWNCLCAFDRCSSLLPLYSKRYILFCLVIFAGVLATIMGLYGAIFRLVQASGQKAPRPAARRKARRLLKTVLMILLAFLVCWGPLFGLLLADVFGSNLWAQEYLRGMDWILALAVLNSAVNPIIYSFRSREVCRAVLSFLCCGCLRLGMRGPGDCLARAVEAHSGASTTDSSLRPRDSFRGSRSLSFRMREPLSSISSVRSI

[15] = target: T5, Coagulation factor XII (Homo sapiens, UniProt P00748); test: activated coagulation factor XII inhibitor potency, concentration-effect curve, cell-free (AID 716); format: functional
T5 sequence (P00748 whole entry): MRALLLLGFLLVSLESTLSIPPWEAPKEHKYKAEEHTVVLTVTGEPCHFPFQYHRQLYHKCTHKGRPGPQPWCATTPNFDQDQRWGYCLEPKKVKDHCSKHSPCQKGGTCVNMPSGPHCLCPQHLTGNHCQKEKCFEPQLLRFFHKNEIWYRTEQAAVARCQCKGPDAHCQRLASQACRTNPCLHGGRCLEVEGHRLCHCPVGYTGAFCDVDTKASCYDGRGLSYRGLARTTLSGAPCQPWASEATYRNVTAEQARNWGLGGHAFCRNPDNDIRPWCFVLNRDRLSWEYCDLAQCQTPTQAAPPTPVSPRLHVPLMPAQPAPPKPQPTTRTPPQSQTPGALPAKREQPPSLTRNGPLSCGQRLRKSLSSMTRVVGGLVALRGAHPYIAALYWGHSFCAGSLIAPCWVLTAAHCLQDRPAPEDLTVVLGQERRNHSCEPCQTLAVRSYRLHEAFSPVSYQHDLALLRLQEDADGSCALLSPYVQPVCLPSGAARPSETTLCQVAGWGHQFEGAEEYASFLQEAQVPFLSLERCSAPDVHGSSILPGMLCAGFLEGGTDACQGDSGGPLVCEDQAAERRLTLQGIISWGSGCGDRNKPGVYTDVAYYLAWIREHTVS

[16] = target: Glyceraldehyde-3-phosphate dehydrogenase (Homo sapiens, UniProt P04406)
[17] = target: T6, Alkaline phosphatase, tissue-nonspecific isozyme (Homo sapiens, UniProt P05186); test: potency against alkaline phosphatase TNAP – biochemical, luminescent, dose response, SAR follow-up (AID 1056)
T6 sequence (P05186 whole entry): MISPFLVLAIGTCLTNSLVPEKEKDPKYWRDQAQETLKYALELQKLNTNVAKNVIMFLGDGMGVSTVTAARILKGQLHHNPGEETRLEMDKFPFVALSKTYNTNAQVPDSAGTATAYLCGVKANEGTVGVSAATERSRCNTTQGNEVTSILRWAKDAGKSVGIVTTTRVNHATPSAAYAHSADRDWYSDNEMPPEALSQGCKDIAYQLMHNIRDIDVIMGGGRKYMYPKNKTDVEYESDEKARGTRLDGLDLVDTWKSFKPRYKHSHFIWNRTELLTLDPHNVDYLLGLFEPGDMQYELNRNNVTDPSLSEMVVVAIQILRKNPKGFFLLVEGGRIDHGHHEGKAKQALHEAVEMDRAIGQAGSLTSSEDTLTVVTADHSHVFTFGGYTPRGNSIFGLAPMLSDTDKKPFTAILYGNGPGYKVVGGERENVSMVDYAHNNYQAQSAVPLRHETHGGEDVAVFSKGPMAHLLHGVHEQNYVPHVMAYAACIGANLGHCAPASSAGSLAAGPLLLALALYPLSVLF

[18] = target: T7, E3 ubiquitin-protein ligase XIAP (Homo sapiens, UniProt P98170); test: Counter Screen using XIAP-Bir3 for Chemical Antagonists of Bir1/2 domains of IAP-family anti-apoptotic proteins. [Related pubchem assays (depositor defined):AID1018, AID1449, AID1514, AID1638, AID1749, AID1750, AID488957, AID488963]
[19] = target: T7, E3 ubiquitin-protein ligase XIAP; test: small molecules displacing peptide from XIAP – biochemical, IAP family, fluorescence polarization (AID 1018); format: functional
[20] = target: Genome polyprotein (dengue virus type 2, UniProt P29990); test: flavivirus cap methylation enzyme inhibition – biochemical, confirmation dose response, primary screen (AID 588689); format: functional
Genome polyprotein, sequence (P29990 2492-3391 limits assumed): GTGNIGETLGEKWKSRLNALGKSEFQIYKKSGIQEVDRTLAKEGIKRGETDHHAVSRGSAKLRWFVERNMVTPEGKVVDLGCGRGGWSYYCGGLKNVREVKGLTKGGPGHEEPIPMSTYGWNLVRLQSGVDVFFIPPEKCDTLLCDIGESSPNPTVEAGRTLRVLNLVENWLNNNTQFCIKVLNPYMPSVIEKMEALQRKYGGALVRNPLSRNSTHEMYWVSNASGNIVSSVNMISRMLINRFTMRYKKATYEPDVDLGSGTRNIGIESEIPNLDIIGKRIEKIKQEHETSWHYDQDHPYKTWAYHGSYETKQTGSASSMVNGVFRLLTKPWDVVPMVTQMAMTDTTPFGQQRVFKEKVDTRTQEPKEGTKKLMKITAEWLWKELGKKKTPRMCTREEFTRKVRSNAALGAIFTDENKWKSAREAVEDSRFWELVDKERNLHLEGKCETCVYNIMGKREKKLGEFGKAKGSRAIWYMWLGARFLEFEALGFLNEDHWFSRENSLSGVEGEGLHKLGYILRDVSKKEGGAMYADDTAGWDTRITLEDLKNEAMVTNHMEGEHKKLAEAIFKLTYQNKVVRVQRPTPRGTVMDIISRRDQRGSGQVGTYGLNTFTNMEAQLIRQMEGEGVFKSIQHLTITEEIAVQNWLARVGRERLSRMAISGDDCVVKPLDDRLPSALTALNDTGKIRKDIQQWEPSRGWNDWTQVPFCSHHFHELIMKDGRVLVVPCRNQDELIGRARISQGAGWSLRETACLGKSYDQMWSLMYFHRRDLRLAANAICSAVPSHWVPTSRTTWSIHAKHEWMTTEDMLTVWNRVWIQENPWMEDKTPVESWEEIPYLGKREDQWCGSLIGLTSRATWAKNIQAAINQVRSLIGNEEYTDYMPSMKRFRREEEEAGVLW

T7 sequence (P98170 whole entry): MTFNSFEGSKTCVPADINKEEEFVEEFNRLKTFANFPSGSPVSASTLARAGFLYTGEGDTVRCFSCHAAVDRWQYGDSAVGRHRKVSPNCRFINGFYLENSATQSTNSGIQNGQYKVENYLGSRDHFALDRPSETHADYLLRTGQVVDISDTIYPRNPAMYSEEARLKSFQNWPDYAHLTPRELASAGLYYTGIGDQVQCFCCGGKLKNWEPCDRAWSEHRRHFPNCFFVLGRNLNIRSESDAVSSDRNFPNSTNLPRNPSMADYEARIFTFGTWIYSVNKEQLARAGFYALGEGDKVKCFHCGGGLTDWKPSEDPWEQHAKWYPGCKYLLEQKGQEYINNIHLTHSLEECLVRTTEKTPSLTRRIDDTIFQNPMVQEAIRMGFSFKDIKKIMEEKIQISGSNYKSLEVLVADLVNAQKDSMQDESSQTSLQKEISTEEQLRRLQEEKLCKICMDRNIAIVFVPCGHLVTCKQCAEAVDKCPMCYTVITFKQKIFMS
Sphingosine 1-phosphate receptor 1, sequence (P21453 whole entry): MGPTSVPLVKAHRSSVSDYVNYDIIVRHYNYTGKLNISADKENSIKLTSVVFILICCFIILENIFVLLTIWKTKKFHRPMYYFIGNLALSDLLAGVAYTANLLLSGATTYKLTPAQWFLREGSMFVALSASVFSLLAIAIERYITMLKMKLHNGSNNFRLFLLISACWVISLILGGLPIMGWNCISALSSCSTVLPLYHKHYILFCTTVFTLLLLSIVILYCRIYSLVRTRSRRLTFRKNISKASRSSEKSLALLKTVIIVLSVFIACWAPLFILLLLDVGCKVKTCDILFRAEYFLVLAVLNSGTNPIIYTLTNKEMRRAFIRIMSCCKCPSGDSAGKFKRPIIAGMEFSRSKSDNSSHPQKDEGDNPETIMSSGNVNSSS
Nucleotide-binding oligomerization domain-containing protein 1, sequence (Q9Y239 whole entry, the tested form may be a part): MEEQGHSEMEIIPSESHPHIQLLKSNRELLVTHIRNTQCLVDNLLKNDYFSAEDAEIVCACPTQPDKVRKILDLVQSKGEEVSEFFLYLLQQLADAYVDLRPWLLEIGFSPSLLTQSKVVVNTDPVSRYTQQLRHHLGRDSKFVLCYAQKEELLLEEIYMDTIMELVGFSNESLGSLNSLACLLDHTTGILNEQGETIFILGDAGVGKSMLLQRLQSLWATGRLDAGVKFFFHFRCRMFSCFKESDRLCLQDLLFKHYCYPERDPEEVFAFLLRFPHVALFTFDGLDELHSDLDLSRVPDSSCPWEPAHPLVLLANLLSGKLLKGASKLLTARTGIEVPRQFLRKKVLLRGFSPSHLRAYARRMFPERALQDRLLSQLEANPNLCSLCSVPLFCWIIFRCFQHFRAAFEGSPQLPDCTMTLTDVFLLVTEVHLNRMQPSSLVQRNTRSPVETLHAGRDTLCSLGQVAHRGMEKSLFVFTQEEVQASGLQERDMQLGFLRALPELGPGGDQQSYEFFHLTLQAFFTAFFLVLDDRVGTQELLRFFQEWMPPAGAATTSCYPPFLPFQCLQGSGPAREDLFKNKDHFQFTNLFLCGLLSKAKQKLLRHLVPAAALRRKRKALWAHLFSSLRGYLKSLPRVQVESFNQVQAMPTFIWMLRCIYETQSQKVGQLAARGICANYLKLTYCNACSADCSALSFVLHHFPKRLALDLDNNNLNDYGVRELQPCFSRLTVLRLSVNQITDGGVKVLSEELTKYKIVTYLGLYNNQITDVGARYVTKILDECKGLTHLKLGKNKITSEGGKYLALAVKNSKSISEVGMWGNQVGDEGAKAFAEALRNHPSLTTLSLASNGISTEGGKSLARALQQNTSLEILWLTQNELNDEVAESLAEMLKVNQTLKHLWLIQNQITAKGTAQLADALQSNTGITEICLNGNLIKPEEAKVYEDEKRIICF
Tumor necrosis factor, sequence (P01375 whole entry, the tested form may be a part): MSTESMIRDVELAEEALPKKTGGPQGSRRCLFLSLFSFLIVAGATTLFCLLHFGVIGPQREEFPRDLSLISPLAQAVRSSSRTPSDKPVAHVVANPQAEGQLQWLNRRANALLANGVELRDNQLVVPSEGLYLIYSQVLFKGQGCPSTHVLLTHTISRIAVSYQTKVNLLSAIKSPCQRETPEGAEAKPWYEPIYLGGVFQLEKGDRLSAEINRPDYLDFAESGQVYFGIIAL
Glyceraldehyde-3-phosphate dehydrogenase, sequence (P04406 whole entry): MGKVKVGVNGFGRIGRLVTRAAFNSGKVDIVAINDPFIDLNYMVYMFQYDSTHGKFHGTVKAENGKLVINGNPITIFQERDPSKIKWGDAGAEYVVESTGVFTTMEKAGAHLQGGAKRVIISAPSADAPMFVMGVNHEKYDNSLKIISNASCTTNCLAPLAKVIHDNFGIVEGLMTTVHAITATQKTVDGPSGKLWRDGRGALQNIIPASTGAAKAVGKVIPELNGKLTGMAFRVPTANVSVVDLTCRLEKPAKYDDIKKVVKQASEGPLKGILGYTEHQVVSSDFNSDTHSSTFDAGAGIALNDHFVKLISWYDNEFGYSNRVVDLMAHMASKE
Bcl-2-like protein 10, sequence (Q9HD36 whole entry): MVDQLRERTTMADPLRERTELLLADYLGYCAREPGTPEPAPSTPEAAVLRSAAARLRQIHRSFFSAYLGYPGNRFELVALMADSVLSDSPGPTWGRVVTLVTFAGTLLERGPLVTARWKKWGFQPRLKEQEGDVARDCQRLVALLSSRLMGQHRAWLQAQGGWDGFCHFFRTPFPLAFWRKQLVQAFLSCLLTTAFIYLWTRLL
Eukaryotic translation initiation factor 4E, sequence (P63073 whole entry): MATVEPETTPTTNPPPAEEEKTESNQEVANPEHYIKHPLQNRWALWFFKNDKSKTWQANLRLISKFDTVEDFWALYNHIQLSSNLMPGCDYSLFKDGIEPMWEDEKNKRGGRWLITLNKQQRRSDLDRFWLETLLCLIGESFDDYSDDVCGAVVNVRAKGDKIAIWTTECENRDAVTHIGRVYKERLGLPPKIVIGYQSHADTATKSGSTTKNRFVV

- EC50 [13]: > 49.8 µM (inactive)
- EC50 [14]: 32.2 µM (not active)
SMILES: N#Cc1c(-n2cccc2C=O)sc2c1CCCC2

- IC50 [15]: > 50 µM (inactive)
SMILES: O=C(NCC1CCCO1)c1ccc(COCC(F)(F)C(F)F)cc1 (centres undefined)

- IC50 [18]: > 100 µM (inactive)
- IC50 [19]: > 100 µM (not active)
SMILES: COc1ccc(-n2nc(C(=O)N3CCN(Cc4ccc5c(c4)OCO5)CC3)c3ccccc3c2=O)cc1

Further lines, the molecule ahead of its results:

SMILES: O=C(c1ccc(S(=O)(=O)Cc2ccccc2Cl)c([N+](=O)[O-])c1)N1CCN(c2ccccn2)CC1
- EC50 [1]: 11.8 µM (active)
- IC50 [2]: 2.81 µM (active)
- IC50 [3]: > 20 µM (inactive)
- IC50 [4]: 3.63 µM (active)
- IC50 [5]: 4.53 µM (active)
- IC50 [6]: 4.24 µM (active)
- AC50 [7]: 9.49 µM (active)
- IC50 [8]: 16.3 µM (active)

SMILES: O=C(OC1CCCCC1)c1ccc2c(c1)C1C=CCC1C(C(=O)O)N2 (centres undefined)
- IC50 [9]: 0.84 µM (active)
- IC50 [10]: 2 µM (active)
- IC50 [11]: 1.83 µM (active)
- IC50 [12]: 5.02 µM (active)

SMILES: Cc1cc(-n2c(=O)c(C#N)cc3c(=O)n4ccccc4nc32)no1
- EC50 [13]: 10.1 µM (inactive)
- EC50 [14]: 4.43 µM (active)

SMILES: O=S(=O)(Nc1cnc2ccccc2c1)c1cc(Cl)cc(Cl)c1O
- IC50 [16]: > 100 µM (not active)
- IC50 [17]: 69.6 µM (active)

SMILES: CCc1c(C)sc(NC(=O)OC)c1C(=O)N1CCCCC1
- IC50 [18]: 54.6 µM (active)
- IC50 [19]: > 25 µM (not active)
- IC50 [20]: > 100 µM (active)

— ChEMBL document CHEMBL1201862, “PubChem BioAssay data set” (2004)
